According to patent publication US20160296529A1, “AMINOTRIAZOLOPYRIDINE FOR USE IN THE TREATMENT OF INFLAMMATION, AND PHARMACEUTICAL COMPOSITIONS THEREOF” (priority 2012, published 2016):
Like-named read-outs stand apart in the source and are kept apart here.

Tests used:
rat CIA model = experiment: CIA model 2 (rat collagen induced arthritis, ankle diameter); type: in vivo, Female Lewis rats
Text: Female Lewis rats (n=76) that weighed 165-194 grams (mean approx. 178 g) on arthritis day 0 were obtained from Charles River Laboratories, Inc., Wilmington, Mass., (ref#393739). Animals were identified by a distinct number at the base of the tail delineating group and animal number.
Upon arrival, animals were housed 4/cage in shoe-box polycarbonate cages and acclimated for 8 days prior to being immunized with type II collagen. No concurrent medications were given.
During the acclimation and study periods, animals were housed in a laboratory environment with temperatures ranging 19-25° […]. and relative humidity of 30%-70%. Automatic timers provided 12 h of light and 12 h of dark. Animals were allowed access ad libitum to food and water.
Acclimated female Lewis rats were anesthetized with Isoflurane and receive subcutaneous/intradermal (SC/ID) injections with 300 μL of Freund's Incomplete Adjuvant (Difco, Detroit, Mich.) containing 2 mg/mL bovine type II collagen (Elastin Products, Owensville, Mo.) at the base of the tail and 2 sites on the back on day −9 and on day −3.
Collagen was prepared by making a 4 mg/mL solution in 0.01N Acetic acid. Equal volumes of collagen and Freund's incomplete adjuvant, were emulsified by hand mixing until a bead of this material holds its form when placed in water. Each animal received 300 μL of the mixture on each occasion divided over 3 subcutaneous sites on back.
On study day 1, onset of arthritis occurred and animals were randomized into treatment groups. After randomization, all cages were labelled with protocol number, group number, and animal numbers. Randomization into each group was done after ankle joint swelling was obviously established and there was good evidence of bilateral disease.
Animals with established type II collagen arthritis were treated daily (QD) by the oral (PO) route for 13 days with vehicle (methylcellulose 0.5% (w/v)), or with active compound(s) prepared in methylcellulose, 0.5% (w/v). Oral dosing was initiated on arthritis day 1 and continued daily (QD at 24 h intervals) through day 13. Animals were terminated on arthritis day 14.
The severity of the arthritis was evaluated by measuring the diameter of both ankles on the animals. Caliper measurements of ankles were taken every day beginning on day 0, with a Digitrix II micrometer (Fowler & NSK). Baseline measurements were taken using one ankle with values rounded to one-thousandth of an inch. Measurements were confirmed as clinically normal (0.260-0.264 in) by comparison with historical values for rats based on a range of body weights. Baseline measurements were then applied to both ankles, and these values remain with the animal so long as the ankle was clinically normal with good definition of all the ankle bones and no evidence of inflammation. Animals were terminated on day 14.

[1] = Single dose pharmacokinetics in animals, dog; type: in vivo, Beagle dogs
Experimental: Pharmacokinetic studies were performed in various animal species dosed with the compound according to Formula II to determine the exposure to the compound according to Formula I as well as its apparent terminal half life (T1/2), when possible.
Sprague-Dawley rats (male, 200-250 g), CD1 mice (male, 25-30 g), Beagle dogs (male, 9-10 kg), Göttingen minipigs (male, 10-15 kg) and New Zealand White rabbits (male, 3-5 kg) were acclimatized for at least 7 days before treatment and were kept on a 12 hr light/dark cycle (07 h00-19 h00).
Temperature was maintained at approximately 22° C., and food and water were provided ad libitum. […]
The compound according to Formula II was formulated in 0.5% methylcellulose and dosed orally to 3 animals (or 3 mouse/time points) as a single esophageal gavage at dose ranging from 15 to 45 mg/kg under a dosing volume of 5 or 10 mL/kg.
Blood samples were collected over a 24-h period via the jugular vein (dog, minipig), ear blood vessel (rabbit), cardiac puncture (mouse) or retro-orbital sinus (rat) with lithium heparin as anti-coagulant. Whole blood samples were centrifuged and the resulting plasma samples were stored at −20° C. pending analysis.
Plasma concentrations of the compound according to Formula I and of the compound according to Formula II were determined by an LC-MS/MS method with a limit of quantification ≦10.0 ng/mL for both Formula I and Formula II for all species.
Pharmacokinetic parameters were calculated using a statistical analysis package (WinNonLin (Pharsight, Sunnyvale, Calif.: CA 94086, USA).

Nc1nc2cccc(-c3ccc(CN4CCS(=O)(=O)CC4)cc3)n2n1 [Formula I, 5-[4-(1,1-Dioxothiomorpholin-4-ylmethyl)-phenyl]-[1,2,4]triazolo[1,5-a]pyridin-2-ylamine]
significance to vehicle control (ANOVA) in the CIA second model (rat CIA model; group G: Formula I 25 mg/kg PO QD): mg/kg (*) (((*) = p ≦ 0.05 ANOVA to vehicle control))
ankle diameter (rat CIA model; group G: Formula I 25 mg/kg PO QD, day 0): 0.2629 inches
ankle diameter (rat CIA model; group G: Formula I 25 mg/kg PO QD, day 1): 0.2717 inches
ankle diameter (rat CIA model; group G: Formula I 25 mg/kg PO QD, day 2): 0.2747 inches
ankle diameter (rat CIA model; group G: Formula I 25 mg/kg PO QD, day 3): 0.2826 inches
ankle diameter (rat CIA model; group G: Formula I 25 mg/kg PO QD, day 4): 0.2892 inches
ankle diameter (rat CIA model; group G: Formula I 25 mg/kg PO QD, day 5): 0.2973 inches
ankle diameter (rat CIA model; group G: Formula I 25 mg/kg PO QD, day 6): 0.3064 inches
ankle diameter (rat CIA model; group G: Formula I 25 mg/kg PO QD, day 7): 0.3108 inches
ankle diameter (rat CIA model; group G: Formula I 25 mg/kg PO QD, day 8): 0.3150 inches
ankle diameter (rat CIA model; group G: Formula I 25 mg/kg PO QD, day 9): 0.3089 inches
ankle diameter (rat CIA model; group G: Formula I 25 mg/kg PO QD, day 10): 0.3046 inches
ankle diameter (rat CIA model; group G: Formula I 25 mg/kg PO QD, day 11): 0.3025 inches
ankle diameter (rat CIA model; group G: Formula I 25 mg/kg PO QD, day 12): 0.3006 inches
ankle diameter (rat CIA model; group G: Formula I 25 mg/kg PO QD, day 13): 0.2996 inches
ankle diameter (rat CIA model; group G: Formula I 25 mg/kg PO QD, day 14): 0.3016 inches
significance to vehicle control (ANOVA) in the CIA second model (rat CIA model; group H: Formula I 50 mg/kg PO QD): mg/kg (*) (((*) = p ≦ 0.05 ANOVA to vehicle control))
ankle diameter (rat CIA model; group H: Formula I 50 mg/kg PO QD, day 0): 0.2624 inches
ankle diameter (rat CIA model; group H: Formula I 50 mg/kg PO QD, day 1): 0.2718 inches
ankle diameter (rat CIA model; group H: Formula I 50 mg/kg PO QD, day 2): 0.2705 inches
ankle diameter (rat CIA model; group H: Formula I 50 mg/kg PO QD, day 3): 0.2814 inches
ankle diameter (rat CIA model; group H: Formula I 50 mg/kg PO QD, day 4): 0.2886 inches
ankle diameter (rat CIA model; group H: Formula I 50 mg/kg PO QD, day 5): 0.2970 inches
ankle diameter (rat CIA model; group H: Formula I 50 mg/kg PO QD, day 6): 0.3061 inches
ankle diameter (rat CIA model; group H: Formula I 50 mg/kg PO QD, day 7): 0.3110 inches
ankle diameter (rat CIA model; group H: Formula I 50 mg/kg PO QD, day 8): 0.3160 inches
ankle diameter (rat CIA model; group H: Formula I 50 mg/kg PO QD, day 9): 0.3085 inches
ankle diameter (rat CIA model; group H: Formula I 50 mg/kg PO QD, day 10): 0.3032 inches
ankle diameter (rat CIA model; group H: Formula I 50 mg/kg PO QD, day 11): 0.3041 inches
ankle diameter (rat CIA model; group H: Formula I 50 mg/kg PO QD, day 12): 0.3039 inches
ankle diameter (rat CIA model; group H: Formula I 50 mg/kg PO QD, day 13): 0.3014 inches
ankle diameter (rat CIA model; group H: Formula I 50 mg/kg PO QD, day 14): 0.2999 inches
half-life ([1]; Beagle, plasma, 10 mg/kg, male, administration of Formula I, oral, read-out: Apparent terminal half life (converted)): 9 h
AUC ([1]; Beagle, plasma, male, Formula I 10 mg/kg single oral dose, read-out: AUC): 49400 ng·h/mL
AUC ([1]; Beagle, plasma, male, Formula I 25 mg/kg single oral dose, read-out: AUC): 114000 ng·h/mL
AUC ([1]; Beagle, plasma, male, Formula I 50 mg/kg single oral dose, read-out: AUC): 290000 ng·h/mL
Ratio I/II of exposure (AUC Formula I : AUC Formula II) ([1]; after Formula II 15 mg/kg oral): 0.24
AUC ([1]; male, Beagle, plasma, after Formula II 15 mg/kg oral, read-out: exposure (expressed as AUC)): 10600 ng·h/mL
